Experimental data published in patent publication US9738623B2, “Curcumin analogs” (The General Hospital Corporation, priority 2012, dated 2017).

How the values were obtained:
FAM-Aβ42 = target: T1, FAM-Aβ42 (Homo sapiens, UniProt P05067); test: SDS-PAGE of copper-induced crosslinking of FAM-Aβ42; type: biochemical; details: for intensity of monomeric Aβ bands relative to non-treated group: 4 hours incubation with copper sulfate and vitamin C
T1 construct: a Aβ42 labeled with fluorescent dye (FAM) (FAM-Aβ42); purchased American Peptide Company
Description: (§1) Samples were separated on 4-20% gradient Tris-glycine mini gels (Invitrogen). For FAM-Aβ42 gels, the images were acquired on IVIS®Spectrum (Caliper, Perkin Elmer) with excitation=465 nm, and emission=520 nm. For native Aβ42 gels, the gel was transferred to a nitrocellulose membrane in a cooled transferring buffer and the membrane was blocked at room temperature for 2 hours. After blocking, the membrane was incubated in a solution of 6E10 anti-Aβ primary antibody (1:2000 dilution, Covance, Dedham, Mass.) at 4° C. overnight. After washing with TBS buffer, the membrane was incubated with the secondary antibody for 2 hours at room temperature. Western Breeze Chemiluminescent kit (Invitrogen) was used to visualize the bands. The images were acquired using IVIS®Spectrum (Caliper, Perkin Elmer) using bioluminescence imaging setting. SeeBlue®plus2 (Invitrogen)(4-250KD) was used as a molecular weight marker.
(§2) All the samples used for SDS-PAGE gel and Western blot were prepared using the same procedure as described below. A 5 μL HFIP (hexafluoroisopropanol) solution (25 μM) of native Aβ42 or FAM-Aβ42 was added to a 1.5 mL eppendorf tube. After evaporating the organic solvent under vacuum, a 5 μL at DMSO or DMSO solution of CRANAD-17 (100 μM) was added to the tube, followed by the addition of 15 μL of Vitamin C solution in PBS (33.3 μM) and 5 μL of copper sulfate solution in PBS (12.5 μM). The resulting mixture was incubated at 37° C. for 4 hours, and was then subjected to gel electrophoresis. For dose dependency study, 5 μL of DMSO solution of different CRANAD-17 concentrations (25, 125, 250 μM) was added to obtain CRANAD-17/Aβ42 ratio equals 1:1, 5:1, and 10:1.

Aβ42 [1] = target: T2, Aβ42 (Homo sapiens, UniProt P05067); test: Western blot of copper-induced crosslinking of native Aβ42; type: biochemical; details: for attenuation of copper-induced crosslinking of native Aβ42: 4 hours incubation; for high molecular weight species on gel: copper treated
T2 construct: Synthetic amyloid-β peptide (1-40/42) was purchased from rPeptide; purchased rPeptide (Bogart, Ga.)
Description: as §1, §2
To this end, human Aβ42 was incubated with curcumin, CRANAD-3 and CRANAD-17 under the same conditions as above.

APP/PS1 mice = test: In vivo six-month treatment of APP/PS1 mice (NIR imaging, ELISA, plaque counting); details: 4 mg/kg i.p. twice a week, 6-month treatment
Description: Transgenic APP-PS1 mice and age-matched wild type mice were purchased from Jackson Laboratory. In vivo NIR imaging was recorded using the IVIS° Spectrum.
Ten APP/PS 1 mice (4-month) were divided into 2 groups (n=5/group), and one group was i.p. injected with 100 microliter of CRANAD-17 (4 mg/kg, formulated withl0% cremophor, 10% DMSO and 80% PBS) twice a week. After 6-month treatment, the two groups were subjected to NIR imaging with CRANAD-3 (ex=605, em=680 nm), and then were sacrificed. The brain of each mouse was taken, and dissected in two halves. One half brain was subjected to extraction and then to ELISA analysis. The other half brain was dissected into 25 micron slices, and then the slices were stained with Thioflavin S. Eight slices from hippocampus area of each mouse were subjected to amyloid beta plaque counting by ImageJ.

[H13R]Aβ40 = target: T3, [H13R]Aβ40 (Homo sapiens, UniProt P05067, H684R); test: Fluorescence spectra recording with [H13R]Aβ40; type: binding
T3 construct: [H13R]Aβ40 monomers; purchased American Peptide Company
Description: (§3) The procedure described below was used for all experiments. To test the interactions of CRANAD-17 with Aβ species including Aβ42 monomers, Aβ40 monomers and [H13R]Aβ40 monomers, we utilize the following protocol. Step 1: 1.0 mL of PBS buffer was added to a quartz curvet as a blank control and its fluorescence was recorded with the same parameters as for CRANAD-17; Step 2: fluorescence of a CRANAD-17 solution (1 mL, 500 nM) was recorded with excitation at 480 nm and emission from 500 nm to 900 nm; Step 3: to the above CRANAD-17 solution, 10 μL of Aβ species (25 μM) was added to make the final Aβ species concentration of 250 nM, and the fluorescence spectrum from this solution was recorded. The final spectra from steps 2 and 3 were corrected using the blank control from step 1.
Conceivably, it is possible that the pyridyl ring on the other end of CRANAD-3 has a specific interaction with H13 and H14 of Aβ, which have aromatic imidazolium rings and are at the equal distance from K16 as VFF. To this end, the fluorescence intensities of CRANAD-3 with Aβ and H13R substituted Aβ ([H13R]Aβ), in which H13 is replaced by arginine (R) was compared.

Aβ42 [2] = target: T2, Aβ42; test: Thioflavin T test of Aβ42 aggregation; type: biochemical; details: 10 μM compound, 37° C., 24 hours
Description: A 2.5 μM of Aβ42 solution in PBS was placed at 37° C. for 24 hours., and 10 μL of this solution was added to 1.0 ml PBS solution. The resulting solution was and then subjected to fluorescence spectrum recording with excitation=440 nm, and emission=470-800 nm (baseline recording). To this solution, 10 μL of thioflavin T (2.5 μM in PBS) was added and the spectrum was recorded. The quantification was conducted at λem=500 nm for Thioflavin T reading by subtracting the baseline reading. For CRANAD-17 (10 μM) incubation, the quantification was conducted by subtracting the readings at baseline and CRANAD-17 at λem=500 nm.

human Aβ40 = target: T4, human Aβ40 (Homo sapiens, UniProt P05067); test: Fluorescence spectra recording with Aβ40; type: binding; details: 500 nM compound, 250 nM Aβ
T4 construct: Synthetic amyloid-β peptide (1-40/42) was purchased from rPeptide; purchased rPeptide (Bogart, Ga.)
Description: as §3

Aβ42 [3] = target: T2, Aβ42; test: TEM measurement of Aβ42 aggregation; type: biochemical; details: 1.0 μM compound, 250 nM Aβ42, 37° C., 24 hours
Description: A 250 nM of Aβ42 in PBS solution was placed was at 37° C. for 24 hours. Next, 5 μL of this solution was dropped onto a Formvar coated TEM grid, followed by the addition of 2 μL of PTA contrast solution. After one minute, the liquid on the grid was carefully dried with a corner of a filter paper, and the resulting grid was further dried in the air for 2-5 minute. The TEM images were taken with JEOL 1011 electron microscope. Similar procedure was used for the incubated solution of CRANAD-l7 (1.0 μM) and Aβ42 (250 nM).

Row | Compound | intensity of monomeric Aβ bands relative to non-treated group (FAM-Aβ42) | attenuation of copper-induced crosslinking of native Aβ42 (Aβ42 [1]; Western blot) | high molecular weight species on gel (Aβ42 [1]) | ELISA analysis of brain extraction, reduction (APP/PS1 mice) | lower NIR signals than non-treated group (imaging with CRANAD-3) (APP/PS1 mice) | plaque counting, reduction (APP/PS1 mice; hippocampus slices, Thioflavin S) | blue-shift with [H13R]Aβ ([H13R]Aβ40) | fluorescence intensity with [H13R]Aβ compared to native Aβ ([H13R]Aβ40) | Thioflavin T fluorescence signal (Aβ42 [2]) | fluorescence property changes upon mixing with Aβ (human Aβ40) | visible fibrils by TEM compared to control (Aβ42 treated with copper only) (Aβ42 [3]) | attenuation effect compared to curcumin and CRANAD-3 (Aβ42 [1]; Western blot) | attenuation of copper-induced crosslinking (FAM-Aβ42; FAM-Aβ42/compound 1:1, 1:5, 1:10)
1 | COc1cc(/C=C/C(=O)CC(=O)/C=C/c2ccc(O)c(OC)c2)ccc1O [curcumin] | 1.07 fold | could attenuate crosslinking | no significant amount of high molecular weight species | – | – | – | – | – | – | – | – | – | –
2 | CRANAD-17 | 1.92 fold | could attenuate crosslinking | a certain amount of high molecular weight oligomeric species | 36% | 25% | 78% | no significant blue-shift | significantly lower fluorescence intensity | lower fluorescence signal | intensity increase and blue-shift | less visible fibrils | significantly higher attenuation effect | –
3 | c1ccc(-n2ccnc2)cc1 [4-(1H-imidazol-1-yl)benzene] | – | – | – | – | – | – | – | – | – | – | – | – | relatively small compared to CRANAD-17
